The source of these data is ChEMBL document CHEMBL1131556, “The discovery of orally available thrombin inhibitors: studies towards the optimisation of CGH1668” (Bioorg Med Chem Lett, 1998).

For one test, the target named is Prothrombin (Homo sapiens, UniProt P00734). The test can be described thus: In vitro binding affinity for human thrombin.
Test [1] can be described thus: Activated partial thromboplastin time (APTT) was determined by the influence on doubling of a human clotting time assay. In kind it is functional.

For the compound `Nc1ccc(C[C@H](NS(=O)(=O)c2cnccc2N[C@@H](Cc2ccccc2)CN2CCOCC2)C(=O)N2CCC(CCF)CC2)cc1`, the inhibition constant Ki – broadly, the equilibrium dissociation constant of an inhibitor or competing ligand from its target – on Prothrombin is 22 nM. This compound also displayed an Activity in test [1] of 2.9 µM.

On Prothrombin, `CCN(CC)C[C@H](Cc1ccccc1)Nc1ccncc1S(=O)(=O)N[C@@H](Cc1ccc(N)cc1)C(=O)N1CCC(CCF)CC1` registered a Ki of 45 nM. Besides, in test [1], the Activity turned out to be 3.56 µM.

Compound `COc1ccc(C[C@H](NS(=O)(=O)c2cnccc2N[C@H](CO)Cc2ccccc2)C(=O)N2CCC(CCF)CC2)cc1` displayed a Ki at Prothrombin of 36 nM. In test [1], this compound had an Activity of 8.1 µM.

`CCC1CCN(C(=O)[C@H](Cc2ccc(N)cc2)NS(=O)(=O)c2cnccc2N[C@H](CO)Cc2ccccc2)CC1` returned an inhibition constant (Ki) on Prothrombin of 110 nM. Besides, in test [1], the Activity worked out at 5.5 µM.

On to `COCCN(CCOC)C[C@H](Cc1ccccc1)Nc1ccncc1S(=O)(=O)N[C@@H](Cc1ccc(N)cc1)C(=O)N1CCC(CCF)CC1`, for which the Ki on Prothrombin was 19 nM. Moreover, in test [1], the Activity is 3.7 µM.

`O=C([C@H](Cc1ccccc1)NS(=O)(=O)c1cnccc1N[C@H](CO)Cc1ccccc1)N1CCC(CCF)CC1` registered a Ki on Prothrombin of 100 nM. This compound gave an Activity in test [1] of 11.5 µM.

Take `Nc1ccc(C[C@H](NS(=O)(=O)c2cnccc2N[C@H](CO)Cc2ccccc2)C(=O)N2CCC(CCO)CC2)cc1`: on Prothrombin, the Ki came to 634 nM. Moreover, the Activity in test [1] turned out to be 7.4 µM.

At Prothrombin, `Nc1ccc(C[C@H](NS(=O)(=O)c2cnccc2N[C@H](CO)CC2CCCCC2)C(=O)N2CCC(CCF)CC2)cc1` gave an inhibition constant Ki of 18 nM. In addition, the Activity in test [1] is 2.6 µM.

For the compound `C[C@H](Cc1ccccc1)Nc1ccncc1S(=O)(=O)N[C@@H](Cc1ccc(N)cc1)C(=O)N1CCC(CCF)CC1`, affinity at Prothrombin was put at a Ki of 18 nM. The Activity in test [1] amounted to 7.1 µM.

With `O=C([C@H](Cc1ccc(F)cc1)NS(=O)(=O)c1cnccc1N[C@H](CO)Cc1ccccc1)N1CCC(CCF)CC1`, on Prothrombin, the Ki was found to be 65 nM. Moreover, in test [1], the Activity was determined as 11.7 µM.

Regarding `O=C([C@H](Cc1ccc(O)cc1)NS(=O)(=O)c1cnccc1N[C@H](CO)Cc1ccccc1)N1CCC(CCF)CC1`, the inhibition constant Ki at Prothrombin stood at 41 nM. In addition, in test [1], the Activity was 1.91 µM.

In turn, `CNC[C@H](Cc1ccccc1)Nc1ccncc1S(=O)(=O)N[C@@H](Cc1ccc(N)cc1)C(=O)N1CCC(CCF)CC1` registered an inhibitory constant (Ki) at Prothrombin of 35 nM. The same compound registered an Activity in test [1] of 2.4 µM.

The compound `Nc1ccc(C[C@H](NS(=O)(=O)c2cnccc2N[C@H](COCCO)Cc2ccccc2)C(=O)N2CCC(CCF)CC2)cc1` displayed a Ki on Prothrombin of 49 nM. In test [1], this compound returned an Activity of 2.5 µM.

`CN(C)C[C@H](Cc1ccccc1)Nc1ccncc1S(=O)(=O)N[C@@H](Cc1ccc(N)cc1)C(=O)N1CCC(CCF)CC1` returned an inhibition constant (Ki) on Prothrombin of 24 nM. Further, the Activity in test [1] was 3.4 µM.

For `Nc1ccc(C[C@H](NS(=O)(=O)c2cnccc2N[C@H](CNCCO)Cc2ccccc2)C(=O)N2CCC(CCF)CC2)cc1`, at Prothrombin, the inhibition constant Ki amounted to 72 nM. For the same compound, the Activity in test [1] came out at 2 µM.

With `COc1ccc(C[C@@H](CO)Nc2ccncc2S(=O)(=O)N[C@@H](Cc2ccc(N)cc2)C(=O)N2CCC(CCF)CC2)cc1`, the inhibition constant Ki at Prothrombin was found to be 19 nM. Besides, the Activity in test [1] came out at 2.9 µM.

Regarding `Nc1ccc(C[C@H](NS(=O)(=O)c2cnccc2N[C@H](CO)Cc2ccccc2)C(=O)N2CCC(CCF)CC2)cc1`, the Ki on Prothrombin stood at 39 nM. In test [1], the Activity worked out at 2.5 µM.

`Nc1ccc(C[C@H](NS(=O)(=O)c2cnccc2N[C@H](CO)Cc2ccccc2)C(=O)N2CCC(CCCl)CC2)cc1` returned an inhibition constant Ki at Prothrombin of 27 nM. Further, in test [1], the Activity was 4.4 µM.

Regarding `CC(=O)N1CCN(C[C@H](Cc2ccccc2)Nc2ccncc2S(=O)(=O)N[C@@H](Cc2ccc(N)cc2)C(=O)N2CCC(CCF)CC2)CC1`, at Prothrombin, the affinity, expressed as Ki, was 24 nM. In test [1], this compound came in with an Activity of 2.4 µM.

Consider `CCCCNC[C@H](Cc1ccccc1)Nc1ccncc1S(=O)(=O)N[C@@H](Cc1ccc(N)cc1)C(=O)N1CCC(CCF)CC1`, for which, at Prothrombin, affinity was put at a Ki of 43 nM. The Activity in test [1] was determined as 5.1 µM.

`Nc1ccc(C[C@H](NS(=O)(=O)c2cnccc2N[C@@H](Cc2ccccc2)CN2CCCC2)C(=O)N2CCC(CCF)CC2)cc1` displayed a Ki on Prothrombin of 48 nM. Besides, the Activity in test [1] amounted to 3.4 µM.

For `Nc1ccc(C[C@H](NS(=O)(=O)c2cnccc2N[C@@H](Cc2ccccc2)CN2CCC(O)CC2)C(=O)N2CCC(CCF)CC2)cc1`, on Prothrombin, the affinity corresponds to a Ki of 19 nM. Moreover, the Activity in test [1] is 1.73 µM.

On Prothrombin, `CNC[C@H](CC1CCCCC1)Nc1ccncc1S(=O)(=O)N[C@@H](Cc1ccc(N)cc1)C(=O)N1CCC(CCF)CC1` had a Ki of 33 nM. In addition, the Activity in test [1] was 2.8 µM.

On Prothrombin, `CNc1ccc(C[C@H](NS(=O)(=O)c2cnccc2N[C@H](CO)Cc2ccccc2)C(=O)N2CCC(CCF)CC2)cc1` registered a Ki of 12 nM. The Activity in test [1] was found to be 4.1 µM.

With `COc1ccc(C[C@@H](C)Nc2ccncc2S(=O)(=O)N[C@@H](Cc2ccc(N)cc2)C(=O)N2CCC(CCF)CC2)cc1`, at Prothrombin, the inhibition constant Ki amounted to 15 nM. In addition, the Activity in test [1] was 9 µM.

`COc1ccc(C[C@@H](CO)Nc2ccncc2S(=O)(=O)N[C@@H](Cc2ccc(N)cc2)C(=O)N2CCC(CCF)CC2)cc1OC` came in with an inhibition constant (Ki) at Prothrombin of 49 nM. The Activity in test [1] was 2.5 µM.

The compound `Nc1ccc(C[C@H](NS(=O)(=O)c2cnccc2N[C@@H](Cc2ccccc2)CN2CCNC(=O)C2)C(=O)N2CCC(CCF)CC2)cc1` yielded a Ki on Prothrombin of 90 nM. In test [1], the Activity is 2.43 µM.

On to `CCNC[C@H](Cc1ccccc1)Nc1ccncc1S(=O)(=O)N[C@@H](Cc1ccc(N)cc1)C(=O)N1CCC(CCF)CC1`, for which the affinity at Prothrombin, expressed as Ki, was 99 nM. The Activity in test [1] turned out to be 3.2 µM.

At Prothrombin, `Nc1ccc(C[C@H](NS(=O)(=O)c2cnccc2N[C@@H](Cc2ccccc2)CN2CCCCC2)C(=O)N2CCC(CCF)CC2)cc1` returned a Ki of 25 nM. In addition, the Activity in test [1] stood at 6.1 µM.

`CCCNC[C@H](Cc1ccccc1)Nc1ccncc1S(=O)(=O)N[C@@H](Cc1ccc(N)cc1)C(=O)N1CCC(CCF)CC1` yielded a Ki on Prothrombin of 47 nM. For the same compound, the Activity in test [1] is 3.3 µM.
